Experiments:
OATP2B1 = target: T1, OATP2B1 (Homo sapiens, UniProt O94956); test: Uptake of CLF into CHO cells expressing OATP2B1; assay type: cell-based; details: 1 μmol/L CLF, 1 or 5 minutes
T1 construct: expressed in transfected cells; host or cells: CHO cells (stably transfected; Treiber et al. 2007)
T1 sequence (O94956 1-709): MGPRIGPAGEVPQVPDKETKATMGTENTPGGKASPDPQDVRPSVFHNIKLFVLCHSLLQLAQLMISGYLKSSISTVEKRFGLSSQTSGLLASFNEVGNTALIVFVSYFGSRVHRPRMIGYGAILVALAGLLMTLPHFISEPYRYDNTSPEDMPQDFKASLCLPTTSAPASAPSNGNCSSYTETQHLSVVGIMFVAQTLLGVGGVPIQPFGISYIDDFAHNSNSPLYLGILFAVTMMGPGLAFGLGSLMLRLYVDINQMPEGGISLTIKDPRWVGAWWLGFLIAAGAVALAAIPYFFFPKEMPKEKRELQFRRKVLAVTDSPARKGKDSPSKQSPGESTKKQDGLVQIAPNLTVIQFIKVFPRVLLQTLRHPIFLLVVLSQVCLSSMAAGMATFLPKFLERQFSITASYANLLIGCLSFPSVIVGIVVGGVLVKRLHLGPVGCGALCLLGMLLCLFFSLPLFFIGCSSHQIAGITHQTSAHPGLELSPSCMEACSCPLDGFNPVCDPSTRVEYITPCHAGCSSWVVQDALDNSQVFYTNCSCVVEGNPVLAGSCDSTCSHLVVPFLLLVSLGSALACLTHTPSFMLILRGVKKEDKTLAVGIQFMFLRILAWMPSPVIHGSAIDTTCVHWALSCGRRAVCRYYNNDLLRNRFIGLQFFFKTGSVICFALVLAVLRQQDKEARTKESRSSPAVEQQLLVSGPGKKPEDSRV
Experimental: cDNA for human NTCP [Hagenbuch et al., J Clin Invest 1994 March; 93(3): 1326-1331] was cut with EcoRV and HindI and the coding region ligated into pcDNA5/FRT (Invitrogen, Life-Technologies, Carlsbad, Calif.). CHO FlpIn cells (Invitrogen, Life-Technologies) were transfected with the resulting construct using Lipofectamine® 2000 (Invitrogen, Life-Technologies). Stably transfected cells were selected with 550 μg Hygromycin-B in HAM-F12 medium (Gibco, Invitrogen, Life-Technologies). Transfected cells were cloned with the limiting dilution method. […] To further characterize the cloned cells, immunofluorescence localization of NTCP using a polyclonal antibody against NTCP [Kullak-Ublick G et al., Gastroenterology 1997 October; 113(4):1295-1305] was performed as described by Huber R D et al. [Am J Physiol Cell Physiol 2007 February; 292(2):[…]-[…]]. CHO cells expressing OATP1B1, OATP1B3 and OATP2B1 were described previously [Treiber et al., DMD 35:1400-1407, 2007]. […] After complete solubilization, 1.5 ml was used to measure fluorescence in a Perkin-Elmer LS-5 luminescence-spectrometer set at λexe 486 nm (slit 10 nm) and λem 520 nm (slit 5 nm). Protein was determined with the bicinchoninic acid method using a kit from Interchim (Montfuçon, France). […]

ABCG2 = target: T2, ABCG2 (Homo sapiens, UniProt Q9UNQ0); test: ATP-dependent transport of CLF into Sf21 membrane vesicles containing ABCG2; assay type: biochemical; details: compared with control vesicles
T2 construct: made in house; host or cells: Sf21 insect cells, baculovirus (gift from Borst); plasma membrane vesicles
T2 sequence (Q9UNQ0 1-655): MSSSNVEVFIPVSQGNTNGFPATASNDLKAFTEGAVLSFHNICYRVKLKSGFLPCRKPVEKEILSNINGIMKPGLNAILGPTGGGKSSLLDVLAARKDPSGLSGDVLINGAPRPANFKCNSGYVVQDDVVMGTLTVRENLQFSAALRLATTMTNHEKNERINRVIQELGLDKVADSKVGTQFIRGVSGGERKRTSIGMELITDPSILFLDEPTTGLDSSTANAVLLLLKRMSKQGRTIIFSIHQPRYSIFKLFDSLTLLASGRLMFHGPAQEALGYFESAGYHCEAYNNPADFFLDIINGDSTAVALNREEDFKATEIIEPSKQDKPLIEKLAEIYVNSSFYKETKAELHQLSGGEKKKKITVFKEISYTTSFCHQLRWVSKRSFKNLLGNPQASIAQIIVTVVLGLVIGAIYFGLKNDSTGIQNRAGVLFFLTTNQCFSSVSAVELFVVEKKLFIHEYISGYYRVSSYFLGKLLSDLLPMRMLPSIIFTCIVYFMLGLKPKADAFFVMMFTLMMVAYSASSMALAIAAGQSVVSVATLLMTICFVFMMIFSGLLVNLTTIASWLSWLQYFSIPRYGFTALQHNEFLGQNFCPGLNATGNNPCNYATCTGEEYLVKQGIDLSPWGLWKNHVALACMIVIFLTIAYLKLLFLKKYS
Experimental: The production of recombinant baculovirus was as described by de Waart et al. [Liver Int 2006 April; 26(3):362-368]. ABCC3 and ABCG2-recombinant baculovirus were a kind gift from Borst [Breedveld P. et al., Cancer Res 2004 Aug. 15; 64(16):5804-5811 and Borst P. et al., J Biol Chem 2001 Dec. 7; 276(49):46400-46407.]. ABCB11-recombinant baculovirus was a kind gift from Thompson [Thompson R J et al., Gastroenterology 2002 November; 123(5):1649-1658]. Sf21 cells grown at 27° C. were infected with ABCB11, ABCC2, ABCC3 and ABCG2-cDNA containing baculovirus. Cells were harvested at 2-4 days after infection. Membrane vesicle preparation was as described by de Waart et al. [Liver Int 2006 April; 26(3):362-368].
Transport studies with membrane vesicles were performed using the rapid filtration technique as described by Heijn M et al. [Am J Physiol 1992 January; 262(1 Pt 1):C104-C110]. Radiolabel was measured with a scintillation counter. When CLF was used as a probe, filters were placed in a glass tube, 0.1% Triton-X-100 was added and the tubes vortexed. Samples were pipetted in 96-well plates (Kartell, Noviglio, Italy) and the amount CLF quantitated by measurement of fluorescence at λexe 485 nm and λcm 520 nm using a NovoStar (BMG-labtech, Offenburg, Germany).

`CC(CCC(=O)NC(CCCCNC(=S)Nc1ccc(-c2c3ccc(=O)cc-3oc3cc(O)ccc23)c(C(=O)O)c1)C(=O)O)C1CCC2C3C(O)CC4CC(O)CCC4(C)C3CC(O)C12C` (centres unmarked) [CLF, cholyl lysyl fluorescein] was tested. Which “uptake of CLF into OATP2B1 cells” value (OATP2B1) did it give?
Its value is “no uptake”.

What about the “ATP-dependent transport of CLF in ABCG2 containing membrane vesicles” value (ABCG2) of the same compound?
The value was “not higher than in control vesicles”.

Source: patent publication US8318504B2, “MRP2 efflux pathway prognostic method” (priority 2009, dated 2012)
